Data from ChEMBL document CHEMBL1201862, “PubChem BioAssay data set” (2004).
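Interpolation was linear, between the two tested concentrations surrounding the appropriate level; five concentrations were tested over 48 hours in 96-well plates. GI50 = concentration required for 50% inhibition of growth.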 The source made the active and inactive calls. Cut-off read from the data, not from the text of the source: active = GI50 up to about 1.1 µM and inactive = higher.

What was measured:
Test in all cases: growth of human tumour cells (NCI), 48 h
A549 = tested on: A549
SNB-19 = tested on: SNB-19
OVCAR-8 = tested on: OVCAR-8
OVCAR-3 = tested on: OVCAR-3
ACHN = tested on: ACHN
Hs-578T = tested on: Hs-578T
NCI-H522 = tested on: NCI-H522
A498 = tested on: A498
HCT-15 = tested on: HCT-15
UO-31 = tested on: UO-31
K562 = tested on: K562
RPMI-8226 = tested on: RPMI-8226
SN12C = tested on: SN12C
CCRF-CEM = tested on: CCRF-CEM
HCT-116 = tested on: HCT-116
SK-OV-3 = tested on: SK-OV-3
UACC-257 = tested on: UACC-257
SR = tested on: SR
NCI-H226 = tested on: NCI-H226

Structure (SMILES)	GI50 (A549)	GI50 (SNB-19)	GI50 (OVCAR-8)	GI50 (OVCAR-3)	GI50 (ACHN)	GI50 (Hs-578T)	GI50 (NCI-H522)	GI50 (A498)	GI50 (HCT-15) [µM]	GI50 (UO-31)	GI50 (K562)	GI50 (RPMI-8226)	GI50 (SN12C)	GI50 (CCRF-CEM)	GI50 (HCT-116)	GI50 (SK-OV-3)	GI50 (UACC-257)	GI50 (SR)	GI50 (NCI-H226)
COc1ccc2c(c1)OC(c1cccnc1)C(c1ccccc1)C2=O (centres undefined)	> 100 µM (inactive)	66.7 µM (inactive)	80.2 µM (inactive)	> 100 µM (inactive)	> 100 µM (inactive)	54 µM (inactive)	> 100 µM (inactive)	> 100 µM (inactive)	> 100	> 100 µM (inactive)	> 100 µM (inactive)	> 100 µM (inactive)	> 100 µM (inactive)	> 100 µM (inactive)	97.5 µM (inactive)	59.4 µM (inactive)	> 100 µM (inactive)	> 100 µM (inactive)	98.9 µM (inactive)
NC1=C(N2CCCCC2)C(=O)NC2=N/C(=C\c3ccco3)C(=O)N21	> 100 µM (inactive)	> 100 µM (inactive)	> 100 µM (inactive)		> 100 µM (inactive)	> 100 µM (inactive)	> 100 µM (inactive)	> 100 µM (inactive)	> 100	> 100 µM (inactive)	> 100 µM (inactive)	> 100 µM (inactive)	> 100 µM (inactive)	> 100 µM (inactive)	> 100 µM (inactive)	> 100 µM (inactive)	> 100 µM (inactive)	88.3 µM (inactive)	> 100 µM (inactive)
Nc1nc(NCC2(CO)CC(CCc3ccccc3)C2)cc(=O)[nH]1 (centres undefined)	> 100 µM (inactive)	> 100 µM (inactive)	> 100 µM (inactive)	> 100 µM (inactive)		> 100 µM (inactive)	> 100 µM (inactive)	> 100 µM (inactive)	> 100	18.2 µM (inactive)	26.2 µM (inactive)	46.7 µM (inactive)	> 100 µM (inactive)	78.2 µM (inactive)	> 100 µM (inactive)	22.2 µM (inactive)	> 100 µM (inactive)	> 100 µM (inactive)	> 100 µM (inactive)
CC1CCCN(CP(=O)(c2ccccc2)c2ccccc2)C1 (centres undefined)	> 100 µM (inactive)	> 100 µM (inactive)	> 100 µM (inactive)	78.2 µM (inactive)	> 100 µM (inactive)	> 100 µM (inactive)	> 100 µM (inactive)	> 100 µM (inactive)	> 100	> 100 µM (inactive)	> 100 µM (inactive)	43.5 µM (inactive)	> 100 µM (inactive)		93.8 µM (inactive)	> 100 µM (inactive)	> 100 µM (inactive)	> 100 µM (inactive)	> 100 µM (inactive)
CCNC(=O)C1CCCN1C(=O)C(CCCN=C(N)N)NC(=O)C(CC(C)C)NC(=O)C(Cc1c[nH]c2ccccc12)NC(=O)C(Cc1ccc(O)cc1)NC(=O)C(CO)NC(=O)C(Cc1c[nH]c2ccccc12)NC(=O)C(Cc1c[nH]cn1)NC(=O)C1CCC(=O)N1 (centres undefined)	> 100 µM (inactive)	> 100 µM (inactive)	> 100 µM (inactive)	> 100 µM (inactive)	> 100 µM (inactive)	> 100 µM (inactive)	> 100 µM (inactive)	> 100 µM (inactive)	> 100	> 100 µM (inactive)	> 100 µM (inactive)	> 100 µM (inactive)	> 100 µM (inactive)	> 100 µM (inactive)		> 100 µM (inactive)	> 100 µM (inactive)	> 100 µM (inactive)	> 100 µM (inactive)
NNC(=O)CNc1cccc(Br)c1	> 100 µM (inactive)	> 100 µM (inactive)	> 100 µM (inactive)	> 100 µM (inactive)	> 100 µM (inactive)	> 100 µM (inactive)	> 100 µM (inactive)	> 100 µM (inactive)	> 100	> 100 µM (inactive)	> 100 µM (inactive)	> 100 µM (inactive)	> 100 µM (inactive)		> 100 µM (inactive)	> 100 µM (inactive)	> 100 µM (inactive)	> 100 µM (inactive)	> 100 µM (inactive)
C#C/C=C/CC1OC(C(Br)CC)CC(Br)C2CC1O2 (centres undefined)	68.7 µM (inactive)	> 100 µM (inactive)	61.1 µM (inactive)	38.5 µM (inactive)	39.4 µM (inactive)	87.9 µM (inactive)	2.58 µM (inactive)	> 100 µM (inactive)	40.7		29 µM (inactive)	27.1 µM (inactive)	63.7 µM (inactive)	38.6 µM (inactive)	30.6 µM (inactive)	40.9 µM (inactive)	> 100 µM (inactive)	34.6 µM (inactive)	> 100 µM (inactive)
O=C(CC(C(=O)c1ccsc1)c1ccccc1)c1ccccc1 (centres undefined)	28 µM (inactive)		> 100 µM (inactive)	> 100 µM (inactive)	> 100 µM (inactive)	> 100 µM (inactive)	34.8 µM (inactive)	25.8 µM (inactive)	83.9	> 100 µM (inactive)	> 100 µM (inactive)	> 100 µM (inactive)	> 100 µM (inactive)	69.2 µM (inactive)	75 µM (inactive)	> 100 µM (inactive)	> 100 µM (inactive)	> 100 µM (inactive)	74.1 µM (inactive)
Cc1nc(N)c(N2CCNCC2)c(O)n1	> 100 µM (inactive)	> 100 µM (inactive)	> 100 µM (inactive)	76.7 µM (inactive)	> 100 µM (inactive)	> 100 µM (inactive)	> 100 µM (inactive)	> 100 µM (inactive)	> 100	> 100 µM (inactive)	> 100 µM (inactive)	> 100 µM (inactive)	> 100 µM (inactive)	> 100 µM (inactive)	> 100 µM (inactive)		> 100 µM (inactive)	> 100 µM (inactive)	> 100 µM (inactive)
C=C1CCC2[C@](C)(CCC[C@]2(C)C(=O)O)[C@@H]1CCc1ccoc1 (some centres undefined)	34.5 µM (inactive)	43.5 µM (inactive)		24 µM (inactive)	41.7 µM (inactive)	33.2 µM (inactive)	68.5 µM (inactive)	47 µM (inactive)	26.8	36.5 µM (inactive)	53.5 µM (inactive)	44.7 µM (inactive)	33.5 µM (inactive)	40.7 µM (inactive)	33.7 µM (inactive)	> 100 µM (inactive)	29 µM (inactive)	27 µM (inactive)	20.6 µM (inactive)
CN(/N=C(\C(=O)O)c1ccccc1)C1=NCCCCN1	> 100 µM (inactive)		> 100 µM (inactive)	> 100 µM (inactive)	> 100 µM (inactive)	> 100 µM (inactive)	> 100 µM (inactive)	> 100 µM (inactive)	> 100	> 100 µM (inactive)	> 100 µM (inactive)	> 100 µM (inactive)	> 100 µM (inactive)	> 100 µM (inactive)	> 100 µM (inactive)	> 100 µM (inactive)	> 100 µM (inactive)	> 100 µM (inactive)	> 100 µM (inactive)
